Where a name gives a salt, the structure may show the parent alone.
Assays:
[1] = tested on: Streptomyces coelicolor A3(2); experiment: 1,5-[^14C]-citrate transport assay in whole cells, Streptomyces coelicolor A3(2); type: cell-based; conditions: for uptake of citrate or metal-citrate species above background: S. coelicolor grown with glucose (SMMG), for Fe^3+ SMMG supplemented with 36 μM FeCl3.6H2O; for uptake of citrate in the presence of metal ion: S. coelicolor grown in broth with citrate as sole carbon source (SMMC), PIPES pH 6.5, 4.4 μM citrate
Method: S. coelicolor A3(2) cells were grown from stocks for 48-72 hours at 28° C. and 300 rpm. Cells were collected via centrifugation and washed twice with 50 mM chelexed piperazine-N,N′-bis(2-ethanesulfonic acid) (PIPES) buffer, pH 6.5. Cells were resuspended to an OD of 0.2 after the second wash. 100 μl of cells were added to 2.2 ml microcentrifuge tubes. 5 μl of metal as the chloride salt was then added from the following stock solution concentrations (220 mM CaCl2 or BaCl2, 22 mM MgCl2, NiCl2, 22 mM CoCl2, PbCl2, MnCl2 and 1.65 mM FeCl3). Different molar amounts of metals were used to maximize metal-citrate complex formation as per MINTEQ calculations (A12) and successfully used in a previous literature report (A19). Cells were then incubated at 30° C. for 8 minutes with shaking. At 8 minutes, 5 μl of 96.8 μM 1,5-[^14C]-citrate was added to each sample to provide a final concentration of 4.4 μM. Uptake was stopped by addition of 2 mL of 0.1 M LiCl. This was followed by immediate filtration through cellulose nitrate filters ([…], 2.1 cm diameter). The filters were washed with 2×2 mL of 0.1 M LiCl solution and radioactivity was recorded using a liquid scintillation counter. In every experimental run, background radioactivity was gauged by adding 2 mls of LiCl prior to addition of the radiolabelled citrate. As before, cells were then immediately filtered, washed with 2×2 mL of 0.1 M LiCl and radioactivity monitored. This served as the background and was subtracted from final data. Experiments were performed using at least three independent cultures and each time point was collected in triplicate per run. 4×100 μl of cells from each run were filtered directly through pre-weighed cellulose nitrate filter paper and dried to determine average cell sample weight. Transport assays were also ‘stopped’ using 10 mM HEPES-glucose buffer instead of 0.1 M LiCl to check for the occurrence of ‘leaking’, which has been postulated to occur with the use of LiCl (A22). No noticeable difference was observed across multiple cultures tested in either S. coelicolor (or E. coli as described below).
It is important to note that pre-incubating the ‘free’ metal prior to addition of ^14[C]-citrate or synthesizing the complex and then adding it to the cells made no difference to experimental results consistent with the work reported by Lolkema et al. (A19), except in the case of Fe^3+. Transport assays with Fe^3+ were performed at 25.0° C. with the metal precomplexed to [^14C]-citrate to prevent Fe^3+ precipitation in the aqueous buffer. The temperature and pH change were accounted for in MINTEQ calculations. All experiments using precomplexed mixtures were filtered using a 0.45 μm syringe filter (Fisher Scientific) prior to addition to cells.

[2] = tested on: Sccit; experiment: 1,5-[^14C]-citrate transport assay in E. coli expressing Sccit; type: cell-based, Streptomyces coelicolor; conditions: E. coli AA93 Δfec or JW4251-2 ΔfecA, induced with 0.5 mM IPTG for 1 hour
Method: E. coli AA93 and JW4251-2 cultures were grown in LB as described above. Protein expression for transport assays was induced at 30.0° C. with 0.5 mM Isopropyl β-D-thiogalacto-pyranoside (IPTG) at an OD600 of 1.0 for 1 hour. Subsequent flux assays followed the protocol described above for S. coelicolor and previous literature protocol (A19) with the following adaptations: cells were resuspended with 10 mL of PIPES buffer at 6.5 for all metals, and the transport assay was conducted at 37.0° C. except for iron (25° C.). Non-induced controls were included in all runs. Concentration of metal ion and citrate were chosen to maximize the formation of the desired metal-citrate complex (see Table 2). Experiments were performed using at least three independent cultures and each time point was collected in triplicate per run. Incubation of the metal ion (except for Fe^3+ as described above) and pre-complexation of the metal with [^14C]-citrate prior to cell addition yielded similar results. Experiments were also conducted, specifically for Fe^3+-citrate uptake, involving reducing the IPTG induction temperature in E. coli down to 4° C. (see FIG. 5). This was to observe actual uptake of the iron complex.

[3] = tested on: S. coelicolor; experiment: Growth of S. coelicolor in CHELEX-washed, metal-free SMMC broth; type: cell-based, Streptomyces coelicolor
Method: Streptomyces coelicolor A3(2) was obtained from a third party supplier and the American Type culture collection (BAA-471). S. coelicolor A3(2) stocks were grown in Yeast-Extract Malt Extract broth (YEME) at 28° C. in 125 mL baffled flasks to an Optical Density at 600 nm (OD600) of ˜2.0. 20% glycerol was added to the cells in a 1:1 volume ratio and the cells were chilled on ice for 1 hour and placed at −80° C. still in the ice container. After 24 hours the cells were taken out of the ice container and at −80° C. Streptomyces coelicolor was grown in Streptomyces Minimal Medium (SMM) broth for functional characterization studies. SMM was prepared as previously reported (A17) with the following modifications; L-asparagine was replaced with ammonium sulfate (1 g L^−1), agar was eliminated and either [56 mM] sodium citrate (SMMC) or [56 mM] glucose (SMMG) was added as the sole carbon source. 50 ml of SMMC or SMMG broths were inoculated with 1 ml of S. coelicolor A3(2) stock solutions and grown for 48-72 hrs at 28° C. and 300 rpm shaking in 125 mL baffled flasks.
In addition, growth of S. coelicolor was arrested in CHELEX-washed, metal-free SMMC broth. This arrest could be prevented by addition of Fe^3+ (or Ca^2+) but not Mg^2+ or Ni^2+ to SMMC.

[Ba+2] [Ba^2+]
uptake of citrate or metal-citrate species above background [1]: No uptake

[Ca+2] [Ca^2+]
uptake of 1,5-[^14C]-citrate with metal ion cofactor [2]: uptake of 1,5-[^14C]-citrate observed | uptake of citrate or metal-citrate species above background [1]: No uptake | prevention of growth arrest by addition of metal ion [3]: prevented

[Co+2] [Co^2+]
uptake of 1,5-[^14C]-citrate with metal ion cofactor [2]: did not result in citrate uptake | uptake of citrate in the presence of metal ion [1]: no greater than the rate of uptake without metal ions | uptake of citrate or metal-citrate species above background [1]: No uptake

O=C(O)CN(CCOCCOCCN(CC(=O)O)CC(=O)O)CC(=O)O [EGTA, ethylene glycol tetraacetic acid, reference compound]
EGTA concentration at which citrate uptake decreased to zero ([1]; in the presence of 10 mM Ca^2+): over 1 mM

O=C([O-])CC(O)(CC(=O)[O-])C(=O)[O-].[Fe+3] [Fe^3+-citrate]
Fe^3+-citrate uptake, iron absent from growth broth ([1]; S. coelicolor grown in SMM containing glucose, no iron in broth): greatly reduced

[Fe+3] [Fe^3+]
uptake of 1,5-[^14C]-citrate with metal ion cofactor [2]: uptake of 1,5-[^14C]-citrate observed | uptake of citrate in the presence of metal ion [1]: uptake was dependent on the presence | uptake of citrate or metal-citrate species above background [1]: significant uptake | prevention of growth arrest by addition of metal ion [3]: prevented

[Mg+2] [Mg^2+]
uptake of 1,5-[^14C]-citrate with metal ion cofactor [2]: did not result in citrate uptake | uptake of citrate in the presence of metal ion [1]: no greater than the rate of uptake without metal ions | uptake of citrate or metal-citrate species above background [1]: No uptake | prevention of growth arrest by addition of metal ion [3]: not

[Ni+2] [Ni^2+]
uptake of 1,5-[^14C]-citrate with metal ion cofactor [2]: did not result in citrate uptake | uptake of citrate in the presence of metal ion [1]: no greater than the rate of uptake without metal ions | uptake of citrate or metal-citrate species above background [1]: No uptake | prevention of growth arrest by addition of metal ion [3]: not

[Pb+2] [Pb^2+]
uptake of 1,5-[^14C]-citrate with metal ion cofactor [2]: uptake of 1,5-[^14C]-citrate observed | uptake of citrate or metal-citrate species above background [1]: No uptake

O=C(O)CC(O)(CC(=O)O)C(=O)O [free citrate]
uptake of 1,5-[^14C]-citrate with metal ion cofactor [2]: not transported | uptake of citrate in the presence of metal ion [1]: no uptake | uptake of citrate or metal-citrate species above background [1]: No uptake
